One may read the inhibition as the relative decrease from the control value, in per cent.

The test concerns TGFβ signal. Briefly: TGFβ signal inhibitory activity, (SBE)4-Luc reporter in A549 cells (Test Examples 1A and 1B). To be noted: Homo sapiens, A549, read-out: TGFβ inhibition rate, %. The test is classed as cell-based, human. Summed up:
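Compounds at 3 µM and 10 µM (some 1 µM) were added with 2 ng/ml TGFβ-1 to A549 cells stably expressing an SBE-driven luciferase, then cultured 4 hr. Chemiluminescent luciferase signal gave % inhibition versus TGFβ-alone and no-TGFβ controls.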

Where [1] appears, read: test compound 3 µM, TGFβ-1 2 ng/ml, 4 hr, Table 1A.
[2] abbreviates: test compound 10 µM, TGFβ-1 2 ng/ml, 4 hr, Table 1A.
Setting [3] is: 3 µM, compounds of Reference Examples (Test Example 1B).
Setting [4] is: 10 µM, compounds of Reference Examples (Test Example 1B).
Where [5] appears, read: test compound 3 µM, Reference Examples, Table 1B.
Where [6] appears, read: test compound 10 µM, Reference Examples, Table 1B.

Molecules are shown by their SMILES. Like-named read-outs stand apart in the source and are kept apart here.

Turning to `CCc1ccc(Oc2ccnc3cc(OC)c(OC)cc23)c(-c2cccnc2)n1` [Compound 46, 3-(6,7-Dimethoxy-quinolin-4-yloxy)-6-ethyl-[2,3']bipyridine], under setting [1], the inhibition at 3 µM was 100%. Under setting [2], the inhibition at 10 µM came out at 100%.
`COc1cc2c(Oc3cc(C)c(C)cc3C(C)=O)ccnc2cc1OCCCn1ccnc1` [Compound r321]: the inhibition at 3 µM under setting [3] is 100%. The inhibition at 10 µM under setting [4] was found to be 100%.
Take `Cc1cc(Oc2ccnc3ccc(-c4cc5ccccc5o4)cc23)c(-c2ccccn2)nc1C` [Compound 166, 3-(6-Benzofuran-2-yl-quinolin-4-yloxy)-5,6-dimethyl-[2,2']bipyridine]: the inhibition at 3 µM under setting [1] is 78%. The inhibition at 10 µM under setting [2] stood at 100%.
As to `COc1cc2c(Oc3cc4cccnc4nc3C)ccnc2cc1OCCN1CCC(O)CC1` [Compound r451], the inhibition at 3 µM under setting [3] stood at 99%. Also, the inhibition at 10 µM under setting [4] came out at 100%.
Regarding `COc1cc2c(Oc3ccc(C)cc3C(=O)c3ccccc3)ccnc2cc1OCCCCN1CCN(C)CC1` [Compound r148], under setting [5], the inhibition at 3 µM amounted to 99%. Under setting [6], the inhibition at 10 µM is 100%.
The like results for `COc1ccc(C(=O)c2ccc(C)cc2)c(Oc2ccnc3cc(OC)c(OC)cc23)c1` [Compound r65] were, in that order, 58% and 100%.
For `COc1cc2nccc(Oc3ccc(C)cc3C(=O)CCC3CCCC3)c2cc1OC` [Compound r56], in that order: 0% and 84%.
Consider `Cc1cc(Oc2ccnc3ccc(Cl)c(Cl)c23)c(-c2ccccn2)nc1C` [Compound 130, 3-(5,6-Dichloro-quinolin-4-yloxy)-5,6-dimethyl-[2,2']bipyridine], for which the inhibition at 3 µM under setting [1] came out at 100%. Further, the inhibition at 10 µM under setting [2] is 100%.
Turning to `COc1cc2nccc(Oc3ccc(Cl)cc3C(N)=O)c2cc1OC` [Compound r106], the inhibition at 3 µM under setting [5] amounted to 9%. The inhibition at 10 µM under setting [6] was determined as 80%.
Turning to `COc1cc2c(Oc3cc(C)c(C)nc3-c3cccnc3)ccnc2cc1OCC1CO1` (centres unmarked) [Compound r348], under setting [3], the inhibition at 3 µM came to 76%.
For the molecule `COc1cc2nccc(Oc3ccc(C)cc3[N+](=O)[O-])c2cc1OC` [r13], the inhibition at 3 µM under setting [5] was 28%. Under setting [6], the inhibition at 10 µM worked out at 78%.
Turning to `COc1cc2nccc(Oc3cc4cccnc4nc3-c3ccccc3)c2cc1O` [Compound 124, 7-Methoxy-4-(2-phenyl-[1,8]naphthyridin-3-yloxy)-quinolin-6-ol], the inhibition at 3 µM under setting [1] is 99%. Also, the inhibition at 10 µM under setting [2] was 100%.
In the case of `COc1cc2c(Oc3cc(C)c(C)nc3-c3cccc(C)n3)ccnc2cc1O` [Compound r443], under setting [3], the inhibition at 3 µM was 60%. For the same molecule, under setting [4], the inhibition at 10 µM is 97%.
The like results for `COc1cc2c(Oc3cc4ccccc4nc3C)ccnc2cc1OCCN` [Compound r354] were, in that order, 100% and 100%.
Turning to `COc1cc2c(Oc3cc4cccnc4nc3C)ccnc2cc1OCc1ccccc1` [Compound r397], the inhibition at 3 µM under setting [3] was 71%. The inhibition at 10 µM under setting [4] was 100%.
On to `Cc1cc(Oc2ccnc3ccc(-c4ccncc4)cc23)c(-c2ccccn2)nc1C` [Compound 7, 5,6-Dimethyl-3-(6-pyridin-4-yl-quinolin-4-yloxy)-[2,2']bipyridine], for which the inhibition at 3 µM under setting [1] came out at 100%. Besides, under setting [2], the inhibition at 10 µM was determined as 100%.
As for `Cc1cc(Oc2ccnc3cc(Cl)c(C(N)=O)cc23)c(-c2ccccn2)nc1C` [Compound 146, 7-Chloro-4-(5,6-dimethyl-[2,2']bipyridinyl-3-yloxy)-quinoline-6-carboxylic acid amide], the inhibition at 3 µM under setting [1] was determined as 54%. Besides, under setting [2], the inhibition at 10 µM amounted to 95%.
On to `COc1cc2c(Oc3cc4cccnc4nc3-c3ccccc3)ccnc2cc1Cl` [Compound 61, 3-(7-Chloro-6-methoxy-quinolin-4-yloxy)-2-phenyl-[1,8]naphthyrridine], for which the inhibition at 3 µM under setting [1] was 98%. Under setting [2], the inhibition at 10 µM was 100%.
Consider `COc1cc2c(Oc3cc(C)c(C)nc3-c3ccccc3)ccnc2cc1O` [Compound r332], for which the inhibition at 3 µM under setting [3] was found to be 97%. In addition, under setting [4], the inhibition at 10 µM was 100%.
Turning to `COc1cc2nccc(Oc3cc(Cl)ccc3C(C)=O)c2cc1OC` [r181], under setting [3], the inhibition at 3 µM stood at 42%. Also, the inhibition at 10 µM under setting [4] is 82%.
For `CCc1nc2ncccc2cc1Oc1ccnc2cc(OC)c(OC)cc12` [Compound r423], in that order: 88% and 100%.
On to `Cc1cc(Oc2ccnc3ccc(-c4cn[nH]c4)cc23)c(-c2ccccn2)nc1C` [Compound 169, 5,6-Dimethyl-3-[6-(1H-pyrazol-4-yl)-quinolin-4-yloxy]-[2,2']bipyridine], for which the inhibition at 3 µM under setting [1] stood at 100%. In addition, the inhibition at 10 µM under setting [2] came to 100%.
As for `COc1ccc(-c2nc(C)ccc2Oc2ccnc3cc(OC)c(OC)cc23)cc1` [Compound r249], the inhibition at 3 µM under setting [3] turned out to be 52%. Further, the inhibition at 10 µM under setting [4] was 98%.
In the case of `COc1cc2c(Oc3cc4ccccc4nc3C)ccnc2cc1CCCO` [Compound r411], the inhibition at 3 µM under setting [3] was 50%. The inhibition at 10 µM under setting [4] turned out to be 85%.
On to `COc1cc2c(Oc3ccc(C)cc3C(=O)c3ccccc3)ccnc2cc1OCCN1CCN(C)CC1` [Compound r129], for which the inhibition at 3 µM under setting [5] stood at 100%. The inhibition at 10 µM under setting [6] stood at 100%.
With `Cc1cc(Oc2ccnc3ccncc23)c(-c2ccccn2)nc1C` [Compound 31, 4-(5,6-Dimethyl-[2,2']bipyridin-3-yloxy)-[1,6]naphthyridine], the inhibition at 3 µM under setting [1] was determined as 85%. The inhibition at 10 µM under setting [2] was found to be 99%.
Consider `COc1cc2nccc(Oc3ccc(F)cc3C(C)=O)c2cc1OC` [r33], for which the inhibition at 3 µM under setting [5] came out at 27%. In addition, under setting [6], the inhibition at 10 µM was determined as 94%.
Consider `COc1cc2nccc(Oc3ccc(C)nc3Cc3ccccc3)c2cc1OC` [r214], for which, under setting [3], the inhibition at 3 µM is 99%. Moreover, the inhibition at 10 µM under setting [4] worked out at 100%.
As to `COc1cc2nccc(Oc3ccccc3C(=O)OCc3ccccc3)c2cc1OC` [r103], under setting [5], the inhibition at 3 µM was determined as 20%. For the same molecule, the inhibition at 10 µM under setting [6] was determined as 84%.
Turning to `COc1cc2nccc(Oc3ccc(C)nc3-c3nccs3)c2cc1OC` [r259], where the note is “1 µM, compounds of Reference Examples (Test Example 1B)”, the inhibition at 1 µM is 100%.
Turning to `COc1cc2nccc(Oc3cc(C)c(C)nc3-c3cccnc3)c2cc1OC` [Compound r270], the inhibition at 3 µM under setting [3] is 100%.
Take `COc1cc2c(Oc3ccc(C)cc3C(=O)c3ccccc3)ccnc2cc1OCCN1CCNCC1` [Compound r128]: the inhibition at 3 µM under setting [5] was 100%. In addition, the inhibition at 10 µM under setting [6] was 100%.
Turning to `CCC(=O)c1cc(OC)ccc1Oc1ccnc2cc(OC)c(OC)cc12` [Compound r50], the inhibition at 3 µM under setting [5] was found to be 100%. For the same molecule, the inhibition at 10 µM under setting [6] amounted to 100%.
With `COc1cc2c(Oc3ccc(C)cc3C(=O)c3ccccc3)ccnc2cc1OCC(O)CN1CCC(N2CCCC2)CC1` (centres unmarked) [r155], the inhibition at 3 µM under setting [5] is 100%. The inhibition at 10 µM under setting [6] stood at 100%.
In the case of `CCc1ccc(Oc2ccnc3ccc(OCCOC(=O)[C@@H](N)C(C)C)cc23)c(-c2ncccn2)n1` [Compound 208, 2-[4-(6-Ethyl-2-pyrimidin-2-yl-pyridin-3-yloxy)-quinolin-6-yloxy]-ethyl (S)-2-amino-3-methyl-butanoate], under setting [1], the inhibition at 3 µM turned out to be 75%.
In the case of `COc1cc2c(Oc3cc(C)c(C)nc3-c3cccc(C)n3)ccnc2cc1OCCO` [Compound r450], the inhibition at 3 µM under setting [3] worked out at 94%. Besides, the inhibition at 10 µM under setting [4] came to 100%.

The record behind these values is patent EP1724268A1, “COMPOUND HAVING TGF-BETA INHIBITORY ACTIVITY AND PHARMACEUTICAL COMPOSITION CONTAINING SAME” (KIRIN BEER KABUSHIKI KAISHA, priority 2004, dated 2005).
